Measurements: publication PMC8459971, “Evaluation of the hepatotoxicity of the novel GPR40 (FFAR1) agonist CPL207280 in the rat and monkey” (PLoS ONE, 2021)
“And” between values parts separate entries of the source, which are not always exact repeats. Identical values can stand only once. Like-named read-outs stand apart in the source and are kept apart here.

Columns and labels:
[1] = Pharmacokinetics in mice, serum and liver concentrations; settings: for liver conc / serum conc: mouse, 3 mg/kg p.o., individual animals
Method: The mice were separated into four groups of 32 mice per group. […] At time point t = 0, animals received a single dose of the compounds orally. […] Four hours after drug administration, the animals received standard chow. […] After solubilization in extraction buffer, the solutions were shaken for 1 min and then centrifuged for 4 min (4000 x g).

[2] = Stability in microsomes, mouse; type: in vitro ADME; settings: for average DEG [%]: mouse microsomes, with cofactors
Method: (§1) The final incubation volume was 500 μL. Two control compounds (verapamil and donepezil) were included for each microsomal species, along with the appropriate vehicle control. The reactions were terminated by transferring 50 μL of incubate to 100 μL methanol containing an internal standard (metoprolol) at appropriate time points (0, 10, 20, 40, 60, and 120 min for the test compound and 0, 5, 10, 20, 40, and 60 min for the control compounds). The termination plates were centrifuged at 4000 x g at 4°C for 30 min to precipitate the protein. The supernatants were then collected for analysis, and LC-MS/MS was used for detection purposes. The system consisted of an Acquity™ Binary Solvent Manager, Acquity™ 4-position heated column manager, 2777 Ultra High Pressure Autosampler, and a Xevo-TQ MS triple quadrupole mass spectrometer (Waters Ltd., Herts, UK). This process was carried out twice.

[3] = Stability in microsomes, human; type: in vitro ADME; settings: for average DEG [%]: human microsomes, with cofactors
Method: as §1

[4] = molecular target: T1, OAT2v1 (Homo sapiens, UniProt Q9Y694); assay: Uptake transporter inhibition assay, OAT2v1; type: cell-based; settings: for Accumulation (counts per minute; CPM) HEK293FT-MOCK / Accumulation (counts per minute; CPM) HEK293FT-OAT2v1: OAT2v1
T1 construct: expressed in transfected cells; host or cells: HEK cells
T1 sequence (Q9Y694 1-546 isoform Q9Y694-2): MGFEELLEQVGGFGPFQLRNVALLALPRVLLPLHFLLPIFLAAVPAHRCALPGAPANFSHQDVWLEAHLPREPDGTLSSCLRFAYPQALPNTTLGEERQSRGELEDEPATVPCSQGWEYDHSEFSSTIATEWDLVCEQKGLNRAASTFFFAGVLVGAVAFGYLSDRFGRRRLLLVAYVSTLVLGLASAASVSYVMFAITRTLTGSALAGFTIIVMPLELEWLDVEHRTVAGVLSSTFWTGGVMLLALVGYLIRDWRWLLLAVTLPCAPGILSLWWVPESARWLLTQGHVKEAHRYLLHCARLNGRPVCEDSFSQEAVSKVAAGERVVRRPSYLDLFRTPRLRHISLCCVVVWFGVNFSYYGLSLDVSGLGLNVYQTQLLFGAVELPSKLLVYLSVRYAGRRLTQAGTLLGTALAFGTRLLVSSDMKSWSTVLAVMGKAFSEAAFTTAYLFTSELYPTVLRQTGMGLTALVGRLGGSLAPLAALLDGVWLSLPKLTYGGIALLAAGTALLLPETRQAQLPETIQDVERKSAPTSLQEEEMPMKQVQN
Method: For the uptake transporter inhibition assay, cells were washed twice with 100 μL of the appropriate buffer (HK, pH 7.4) for OATP1B1, followed by HBSS (pH 7.4) for (NTCP, OAT1, OAT2v1, OATP1A2, and OATP1B3). Uptake experiments were carried out at 37 ± 1°C in 50 μL of the respective buffer containing the probe substrate and the compound or solvent.

[5] = molecular target: MRP2 (Homo sapiens, UniProt Q92887); assay: Vesicular transport inhibition assay, MRP2; settings: for Accumulation (counts per minute; CPM) with AMP / Accumulation (counts per minute; CPM) with ATP: MRP2;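 also: membrane vesicles with probe substrate plus 2 mM glutathione, incubated with 4 mM ATP or AMP (AMP as background control), vesicle-retained substrate measured by liquid scintillation counting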;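 as to Accumulation (counts per minute; CPM) with AMP: ATP 4 mM vs AMP background separates transporter uptake from diffusion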;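 as to Accumulation (counts per minute; CPM) with ATP: ATP 4 mM vs AMP background separates transporter uptake from diffusion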
Method: In the vesicular transport inhibition assay (for BSEP, MRP) compounds were incubated with membrane vesicle preparations and the probe substrate. Incubations were carried out in the presence of 4 mM ATP or AMP to distinguish between transporter-mediated uptake and passive diffusion into the vesicles. For MRP2 and MRP3, reactions were carried out in the presence of 2 mM glutathione. Compounds were added to the reaction mixture in 0.75 μL of solvent (1% of the final incubation volume). […] Reactions were initiated by the addition of 25 μL of 12 mM MgATP (or 12 mM AMP in assay buffer as a background control) and preincubated separately. Reactions were quenched by the addition of 200 μL of ice-cold washing buffer and immediate filtration via glass fiber filters mounted on a 96-well plate (filter plate). The filters were washed (5 × 200 μL of ice-cold washing buffer), dried, and the amount of substrate inside the filtered vesicles was determined by liquid scintillation counting.

[6] = Single-dose pharmacokinetics in rats (p.o. and i.v.); type: in vivo, rat; set-up: plasma conc: unit not given here; settings: for plasma conc: single animals; for AUC: read-out: AUC
[7] = Mouse (CD) microsomes, mean n = 2
[8] = rat, plasma, iv, 3 mg/kg, rats, 3 mg/kg i.v.
[9] = rat, plasma, po, 3 mg/kg, rats, 3 mg/kg p.o.

MRP2, sequence (Q92887 whole entry, the tested form may be a part): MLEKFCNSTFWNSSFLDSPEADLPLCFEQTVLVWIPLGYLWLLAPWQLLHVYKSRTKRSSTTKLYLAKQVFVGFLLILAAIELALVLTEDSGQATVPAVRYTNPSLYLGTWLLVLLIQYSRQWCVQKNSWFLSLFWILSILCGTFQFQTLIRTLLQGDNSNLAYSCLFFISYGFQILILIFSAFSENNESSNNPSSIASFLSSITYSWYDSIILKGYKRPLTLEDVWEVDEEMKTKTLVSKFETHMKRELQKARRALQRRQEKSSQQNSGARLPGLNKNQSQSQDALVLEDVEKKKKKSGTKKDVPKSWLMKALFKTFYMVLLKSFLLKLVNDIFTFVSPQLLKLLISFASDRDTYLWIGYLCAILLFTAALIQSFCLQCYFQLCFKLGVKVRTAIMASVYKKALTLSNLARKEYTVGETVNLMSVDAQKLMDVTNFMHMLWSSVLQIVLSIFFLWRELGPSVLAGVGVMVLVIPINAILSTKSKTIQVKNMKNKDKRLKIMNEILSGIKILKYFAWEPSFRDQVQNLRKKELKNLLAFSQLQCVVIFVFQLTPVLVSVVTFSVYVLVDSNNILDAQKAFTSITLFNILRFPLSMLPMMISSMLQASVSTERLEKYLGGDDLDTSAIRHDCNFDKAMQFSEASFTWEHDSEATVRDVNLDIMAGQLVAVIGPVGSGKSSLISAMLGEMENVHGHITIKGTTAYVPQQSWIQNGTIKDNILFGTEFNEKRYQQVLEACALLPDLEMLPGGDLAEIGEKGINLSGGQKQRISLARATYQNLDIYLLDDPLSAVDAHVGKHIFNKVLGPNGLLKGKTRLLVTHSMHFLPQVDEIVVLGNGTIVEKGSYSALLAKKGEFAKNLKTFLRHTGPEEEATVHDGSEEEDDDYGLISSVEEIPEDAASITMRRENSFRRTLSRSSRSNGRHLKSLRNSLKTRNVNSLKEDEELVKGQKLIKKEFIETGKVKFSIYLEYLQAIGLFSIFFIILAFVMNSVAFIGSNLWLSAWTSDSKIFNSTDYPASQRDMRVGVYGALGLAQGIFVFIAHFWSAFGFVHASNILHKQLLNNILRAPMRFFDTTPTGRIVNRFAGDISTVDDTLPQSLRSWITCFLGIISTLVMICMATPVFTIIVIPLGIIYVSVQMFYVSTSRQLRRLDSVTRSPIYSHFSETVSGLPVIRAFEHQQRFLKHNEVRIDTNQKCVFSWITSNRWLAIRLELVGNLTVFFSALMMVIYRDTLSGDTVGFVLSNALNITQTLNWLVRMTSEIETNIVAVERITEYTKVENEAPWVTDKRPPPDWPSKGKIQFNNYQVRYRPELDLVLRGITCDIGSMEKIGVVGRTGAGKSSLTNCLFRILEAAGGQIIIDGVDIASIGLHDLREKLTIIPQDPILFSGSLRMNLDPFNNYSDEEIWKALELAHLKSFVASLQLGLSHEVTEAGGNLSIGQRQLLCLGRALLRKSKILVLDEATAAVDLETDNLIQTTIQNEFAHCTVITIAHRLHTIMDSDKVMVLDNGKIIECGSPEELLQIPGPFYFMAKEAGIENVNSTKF

Cc1cc(OCCCS(C)(=O)=O)cc(C)c1-c1cccc(COc2ccc3c(c2)OC[C@H]3CC(=O)O)c1 [TAK-875, fasiglifam, reference compound]
distribution between liver and serum ([1]; mice, single oral dose 3 mg/kg, 15 min to 24 h): tended to penetrate the liver more than serum | liver conc ([1]; 0.5 h, 3 mg/kg): 12066 and 9386 and 11708 and 12618 | serum conc ([1]; 0.5 h, 3 mg/kg): 993.3 and 360.8 and 908.6 and 651.9 | liver conc ([1]; 1 h, 3 mg/kg): 10596 and 9326 and 7020 and 7420 | serum conc ([1]; 1 h, 3 mg/kg): 1072.6 and 672.7 and 566 and 819 | liver conc ([1]; 2 h, 3 mg/kg): 6580 and 5322 and 5300 and 4227.4 | liver conc ([1]; 4 h, 3 mg/kg): 3742.6 and 2509.2 and 2176.6 and 3530.4 | liver conc ([1]; 7 h, 3 mg/kg): 1827.82 and 413.84 and 1236.2 and 1172.8 | serum conc ([1]; 7 h, 3 mg/kg): 0 and 11.2 and 32.3 and 10 | liver conc ([1]; 12 h, 3 mg/kg): 594.8 and 321.278 and 55.624 and 442.92 | serum conc ([1]; 12 h, 3 mg/kg): 12 and 0 (2×) and 18.6 | serum conc ([1]; 24 h): 0 | liver conc ([1]; 24 h, 3 mg/kg): 449.28 and 67.18 and 37.77 and 209.86 | half-life at 3 μM [2, 7]: 5.72 h | microsomal CLint at 3 μM [2, 7]: 4 µL/min/mg | average DEG [%] ([2]; 0 min): 100.0% | average DEG [%] ([2]; 20 min): 83.6% | average DEG [%] ([2]; 40 min): 92.9% | average DEG [%] ([2]; 60 min): 79.0% | half-life at 3 μM ([3]; Human microsomes, mean n = 2): 3.5 h | microsomal CLint at 3 μM ([3]; Human microsomes, mean n = 2): 6.6 µL/min/mg | stability classification in microsomes ([3]; based on the Clint values from different species, reference ranges by Cyprotex (human range given in legend)): stable compound | average DEG [%] ([3]; 0 min): 100.0% | average DEG [%] ([3]; 20 min): 110.6% | average DEG [%] ([3]; 40 min): 92.5% | average DEG [%] ([3]; 60 min): 85.1% | Accumulation (counts per minute; CPM) HEK293FT-MOCK ([4]; conc 0.10 µM): 37 CPM and 25 CPM | Accumulation (counts per minute; CPM) HEK293FT-OAT2v1 ([4]; conc 0.10 µM): 4606 CPM and 4412 CPM | Accumulation (counts per minute; CPM) HEK293FT-MOCK ([4]; conc 0.30 µM): 30 CPM | Accumulation (counts per minute; CPM) HEK293FT-OAT2v1 ([4]; conc 0.30 µM): 4740 CPM and 4495 CPM | Accumulation (counts per minute; CPM) HEK293FT-MOCK ([4]; conc 1.00 µM): 33 CPM | Accumulation (counts per minute; CPM) HEK293FT-OAT2v1 ([4]; conc 1.00 µM): 4344 CPM and 4183 CPM | Accumulation (counts per minute; CPM) HEK293FT-MOCK ([4]; conc 3.00 µM): 34 CPM and 20 CPM | Accumulation (counts per minute; CPM) HEK293FT-OAT2v1 ([4]; conc 3.00 µM): 4050 CPM and 3892 CPM | Accumulation (counts per minute; CPM) HEK293FT-MOCK ([4]; conc 10.00 µM): 25 CPM and 18 CPM | Accumulation (counts per minute; CPM) HEK293FT-OAT2v1 ([4]; conc 10.00 µM): 3715 CPM and 3589 CPM | Accumulation (counts per minute; CPM) HEK293FT-MOCK ([4]; conc 30.00 µM): 47 CPM and 27 CPM | Accumulation (counts per minute; CPM) HEK293FT-OAT2v1 ([4]; conc 30.00 µM): 3019 CPM and 2844 CPM | Accumulation (counts per minute; CPM) HEK293FT-MOCK ([4]; conc 100.00 µM): 24 CPM and 30 CPM | Accumulation (counts per minute; CPM) HEK293FT-OAT2v1 ([4]; conc 100.00 µM): 1943 CPM and 1847 CPM | IC50 ([4]; transformed HEK cells, up to 300μM, n = 2): 62.8 µM | IC50 [5]: 48.1 µM | Accumulation (counts per minute; CPM) with AMP ([5]; conc 0.07 µM): 234 CPM and 221 CPM | Accumulation (counts per minute; CPM) with ATP ([5]; conc 0.07 µM): 3160 CPM and 3355 CPM | Accumulation (counts per minute; CPM) with AMP ([5]; conc 0.21 µM): 218 CPM and 217 CPM | Accumulation (counts per minute; CPM) with ATP ([5]; conc 0.21 µM): 3318 CPM and 3579 CPM | Accumulation (counts per minute; CPM) with AMP ([5]; conc 0.62 µM): 249 CPM and 186 CPM | Accumulation (counts per minute; CPM) with ATP ([5]; conc 0.62 µM): 3453 CPM and 3166 CPM | Accumulation (counts per minute; CPM) with AMP ([5]; conc 16.67 µM): 211 CPM and 200 CPM | Accumulation (counts per minute; CPM) with ATP ([5]; conc 16.67 µM): 2989 CPM and 3430 CPM | Accumulation (counts per minute; CPM) with AMP ([5]; conc 50.00 µM): 220 CPM and 191 CPM | Accumulation (counts per minute; CPM) with ATP ([5]; conc 50.00 µM): 1700 CPM and 1670 CPM | plasma conc ([6]; rat, 3 mg/kg i.v., 0.08 h, 3 mg/kg): 14090 and 15902 and 15227 and 5072 | plasma conc ([6]; rat, 3 mg/kg i.v., 0.5 h, 3 mg/kg): 14558 and 12270 and 9258 and 3810 | plasma conc ([6]; rat, 3 mg/kg i.v., 1 h, 3 mg/kg): 8089 and 7692 and 11373 and 4600 | plasma conc ([6]; rat, 3 mg/kg i.v., 2 h, 3 mg/kg): 5223 and 7517 and 9423 | plasma conc ([6]; rat, 3 mg/kg i.v., 4 h, 3 mg/kg): 3618 and 4301 and 3765 | plasma conc ([6]; rat, 3 mg/kg i.v., 7 h, 3 mg/kg): 1974 and 2103 and 1928 and 4512 | plasma conc ([6]; rat, 3 mg/kg i.v., 12 h, 3 mg/kg): 1056 and 769 and 1435 | plasma conc ([6]; rat, 3 mg/kg p.o., 0.5 h, 3 mg/kg): 1176 and 692 and 854 and 1110 | plasma conc ([6]; rat, 3 mg/kg p.o., 1 h, 3 mg/kg): 1699 and 1467 and 1460 and 1557 | plasma conc ([6]; rat, 3 mg/kg p.o., 2 h, 3 mg/kg): 1890 and 1694 and 1808 and 1814 | plasma conc ([6]; rat, 3 mg/kg p.o., 4 h, 3 mg/kg): 1443 and 1502 and 1610 and 1643 | plasma conc ([6]; rat, 3 mg/kg p.o., 8 h, 3 mg/kg): 681 and 636 and 614 and 960 and 463 | plasma conc ([6]; rat, 3 mg/kg p.o., 24 h): 0 | Tmax [6, 8]: 0.083 h | Cmax ([6]; rat, plasma, iv, 3 mg/kg, rats, 3 mg/kg i.v., n = 5, read-out: Cmax): 15100 ± 916 ng/mL | AUC [6, 8]: 45200 ± 4680 ng·h/mL | bioavailability ([6]; rat, plasma, oral, rats, 3 mg/kg p.o. vs i.v., read-out: F (bioavailability)): 38% | Tmax [6, 9]: 2 h | AUC [6, 9]: 15800 ± 1510 ng·h/mL | Vd ([6]; rat, plasma, rats, 3 mg/kg): 0.25 ± 0.01 L/kg | k el ([6]; rat, plasma, rats, 3 mg/kg): 6.67e-05 s⁻¹ | greater distribution volume (Vd) than CPL207280 ([6]; rats, 3 mg/kg): 20%
